Experimental data published in patent publication US10681909B2, “Herbicidal triazoles” (FMC Corporation, priority 2014, dated 2020).

Experiments:
[1] = tested on: surinam grass; assay: Test E preemergence; assay type: in vivo, Brachiaria decumbens; conditions: scale 0 to 100
In short: (§1)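 Soil-planted seeds received preemergence treatment, and 2-18 cm plants (1- to 4-leaf stage) postemergence treatment, with test chemicals in a non-phytotoxic solvent with surfactant. After 14 to 21 d in a greenhouse, injury was visually rated against controls on a 0 (no effect) to 100 (complete control) scale.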

[2] = tested on: corn; assay: Test E preemergence; assay type: in vivo, Zea mays; conditions: scale 0 to 100
In short: as §1

[3] = tested on: foxtail, green; assay: Test E preemergence; assay type: in vivo, Setaria viridis; conditions: scale 0 to 100
In short: as §1

[4] = tested on: kochia; assay: Test E postemergence; assay type: in vivo, Kochia scoparia; conditions: scale 0 to 100
Description: (§2) Seeds of plant species selected from corn (Zea mays), soybean (Glycine max), lambsquarters (Chenopodium album), poinsettia, wild (wild poinsettia, Euphorbia heterophylla), pigweed, palmer (palmer pigweed, Amaranthus palmeri), waterhemp (common waterhemp, Amaranthus rudis), surinam grass (Brachiaria decumbens), crabgrass, large (large crabgrass, Digitaria sanguinalis), crabgrass, Brazilian (Brazilian crabgrass, Digitaria horizontalis), panicum, fall (fall panicum, Panicum dichotomiflorum), foxtail, giant (giant foxtail, Setaria faberii), foxtail, green (green foxtail, Setaria viridis), goosegrass (Eleusine indica), johnsongrass (Sorghum halepense), ragweed (common ragweed, Ambrosia elatior), barnyardgrass (Echinochloa crus-galli), sandbur (southern sandbur, Cenchrus echinatus), arrowleaf sida (Sida rhombifolia), ryegrass, Italian (Italian ryegrass, Lolium multiflorum), dayflower, VA (Virginia dayflower, Commelina virginica), field bindweed (Convolvulus arvensis), cocklebur (common cocklebur, Xanthium strumarium), morningglory (Ipomoea coccinea), nightshade (eastern black nightshade, Solanum ptycanthum), kochia (Kochia scoparia), nutsedge, yellow (yellow nutsedge, Cyperus esculentus), smartweed (ladysthumb smartweed, Polygonum persicaria), velvetleaf (Abutilon theophrasti), horseweed (Conyza canadensis), and beggarticks (hairy beggarticks, Bidens pilosa), were planted into a silt loam soil and treated preemergence with test chemicals formulated in a non-phytotoxic solvent mixture which included a surfactant.
(§3) At the same time, plants from these crop and weed species and also waterhemp_RES1, (ALS & Triazine resistant common waterhemp, Amaranthus rudis), and waterhemp_RES2, (ALS & HPPD resistant common waterhemp, Amaranthus rudis) were planted in pots containing Sunshine Redi-Earth® planting medium comprising spaghnum peat moss, vermiculite, starter nutrients and dolomitic limestone were treated with postemergence applications of test chemicals formulated in the same manner. Plants ranged in height from 2 to 18 cm for postemergence treatments (1- to 4-leaf stage). Treated plants and controls were maintained in a greenhouse for 14 to 21 d, after which time all species were compared to controls and visually evaluated. Plant response ratings, summarized in Table E, are based on a scale of 0 to 100 where 0 is no effect and 100 is complete control. A dash (-) response means no test result.

[5] = tested on: dayflower, VA; assay: Test E postemergence; assay type: in vivo, Commelina virginica; conditions: scale 0 to 100
Description: as §2, §3

[6] = tested on: ragweed; assay: Test E postemergence; assay type: in vivo, Ambrosia elatior; conditions: scale 0 to 100
Description: as §2, §3

[7] = tested on: crabgrass, Brazilian; assay: Test E postemergence; assay type: in vivo, Digitaria horizontalis; conditions: Brazil, scale 0 to 100
Description: as §2, §3

[8] = tested on: ragweed; assay: Test E preemergence; assay type: in vivo, Ambrosia elatior; conditions: scale 0 to 100
In short: as §1

[9] = tested on: waterhemp; assay: Test E preemergence; assay type: in vivo, Amaranthus rudis; conditions: scale 0 to 100
In short: as §1

[10] = tested on: pigweed, palmer; assay: Test E postemergence; assay type: in vivo, Amaranthus palmeri; conditions: scale 0 to 100
Description: as §2, §3

[11] = tested on: foxtail, giant; assay: Test E preemergence; assay type: in vivo, Setaria faberii; conditions: scale 0 to 100
In short: as §1

[12] = tested on: nutsedge, yellow; assay: Test E preemergence; assay type: in vivo, Cyperus esculentus; conditions: scale 0 to 100
In short: as §1

[13] = tested on: kochia; assay: Test E preemergence; assay type: in vivo, Kochia scoparia; conditions: scale 0 to 100
In short: as §1

[14] = tested on: dayflower, VA; assay: Test E preemergence; assay type: in vivo, Commelina virginica; conditions: scale 0 to 100
In short: as §1

[15] = tested on: soybean; assay: Test E preemergence; assay type: in vivo, Glycine max; conditions: scale 0 to 100
In short: as §1

[16] = tested on: ryegrass, Italian; assay: Test E preemergence; assay type: in vivo, Lolium multiflorum; conditions: scale 0 to 100
In short: as §1

[17] = tested on: beggarticks; assay: Test E preemergence; assay type: in vivo, Bidens pilosa; conditions: scale 0 to 100
In short: as §1

[18] = tested on: ryegrass, Italian; assay: Test E postemergence; assay type: in vivo, Lolium multiflorum; conditions: scale 0 to 100
Description: as §2, §3

[19] = tested on: crabgrass, large; assay: Test E preemergence; assay type: in vivo, Digitaria sanguinalis; conditions: scale 0 to 100
In short: as §1

[20] = tested on: panicum, fall; assay: Test E preemergence; assay type: in vivo, Panicum dichotomiflorum; conditions: scale 0 to 100
In short: as §1

Molecule `Fc1ccc(-c2nc(OCC(F)(F)F)n(Cc3ccnc(C(F)(F)F)c3)n2)cc1` [Compound 30] has a Plant response rating ([1]; 31 g ai/ha) of 15, a Plant response rating ([1]; 62 g ai/ha) of 20 and a Plant response rating ([1]; 125 g ai/ha) of 50. For the same molecule, the Plant response rating ([1]; 250 g ai/ha) was 70, the Plant response rating ([2]; 31 g ai/ha) was 0 and the Plant response rating ([2]; 62 g ai/ha) was 0. It also gave a Plant response rating ([2]; 125 g ai/ha) of 0, a Plant response rating ([2]; 250 g ai/ha) of 50 and a Plant response rating ([3]; 31 g ai/ha) of 95. For the same molecule, the Plant response rating ([3]; 62 g ai/ha) was 100, the Plant response rating ([3]; 125 g ai/ha) was 100 and the Plant response rating ([3]; 250 g ai/ha) was 100. It also gave a Plant response rating ([4]; 31 g ai/ha) of 90, a Plant response rating ([4]; 62 g ai/ha) of 90 and a Plant response rating ([4]; 125 g ai/ha) of 100. For the same molecule, the Plant response rating ([4]; 250 g ai/ha) was 90, the Plant response rating ([5]; 31 g ai/ha) was 60 and the Plant response rating ([5]; 62 g ai/ha) was 70. It also gave a Plant response rating ([5]; 125 g ai/ha) of 80, a Plant response rating ([5]; 250 g ai/ha) of 90 and a Plant response rating ([6]; 31 g ai/ha) of 65. The Plant response rating ([6]; 62 g ai/ha) was 70, the Plant response rating ([6]; 125 g ai/ha) was 75 and the Plant response rating ([6]; 250 g ai/ha) was 80. The Plant response rating ([7]; 31 g ai/ha) was 35, the Plant response rating ([7]; 62 g ai/ha) was 60 and the Plant response rating ([7]; 125 g ai/ha) was 70. The Plant response rating ([7]; 250 g ai/ha) was 85, the Plant response rating ([8]; 31 g ai/ha) was 65 and the Plant response rating ([8]; 62 g ai/ha) was 50. It also gave a Plant response rating ([8]; 125 g ai/ha) of 70, a Plant response rating ([8]; 250 g ai/ha) of 98 and a Plant response rating ([9]; 31 g ai/ha) of 100. The Plant response rating ([9]; 62 g ai/ha) was 100, the Plant response rating ([9]; 125 g ai/ha) was 100 and the Plant response rating ([9]; 250 g ai/ha) was 100. For the same molecule, the Plant response rating ([10]; 31 g ai/ha) was 95, the Plant response rating ([10]; 62 g ai/ha) was 100 and the Plant response rating ([10]; 125 g ai/ha) was 100. It also gave a Plant response rating ([10]; 250 g ai/ha) of 100, a Plant response rating ([11]; 31 g ai/ha) of 95 and a Plant response rating ([11]; 62 g ai/ha) of 98. For the same molecule, the Plant response rating ([11]; 125 g ai/ha) was 98, the Plant response rating ([11]; 250 g ai/ha) was 100 and the Plant response rating ([12]; 31 g ai/ha) was 0. The Plant response rating ([12]; 62 g ai/ha) was 0, the Plant response rating ([12]; 125 g ai/ha) was 0 and the Plant response rating ([12]; 250 g ai/ha) was 0. It also gave a Plant response rating ([13]; 31 g ai/ha) of 90, a Plant response rating ([13]; 62 g ai/ha) of 100 and a Plant response rating ([13]; 125 g ai/ha) of 100. For the same molecule, the Plant response rating ([13]; 250 g ai/ha) was 100, the Plant response rating ([14]; 31 g ai/ha) was 5 and the Plant response rating ([14]; 62 g ai/ha) was 10. It also gave a Plant response rating ([14]; 125 g ai/ha) of 25, a Plant response rating ([14]; 250 g ai/ha) of 65 and a Plant response rating ([15]; 31 g ai/ha) of 0. It also gave a Plant response rating ([15]; 62 g ai/ha) of 0, a Plant response rating ([15]; 125 g ai/ha) of 0 and a Plant response rating ([15]; 250 g ai/ha) of 30. For the same molecule, the Plant response rating ([16]; 31 g ai/ha) was 30, the Plant response rating ([16]; 62 g ai/ha) was 40 and the Plant response rating ([16]; 125 g ai/ha) was 75. It also gave a Plant response rating ([16]; 250 g ai/ha) of 100, a Plant response rating ([17]; 31 g ai/ha) of 0 and a Plant response rating ([17]; 62 g ai/ha) of 10. For the same molecule, the Plant response rating ([17]; 125 g ai/ha) was 20, the Plant response rating ([17]; 250 g ai/ha) was 50 and the Plant response rating ([18]; 31 g ai/ha) was 25. For the same molecule, the Plant response rating ([18]; 62 g ai/ha) was 25, the Plant response rating ([18]; 125 g ai/ha) was 40 and the Plant response rating ([18]; 250 g ai/ha) was 50. For the same molecule, the Plant response rating ([19]; 31 g ai/ha) was 98, the Plant response rating ([19]; 62 g ai/ha) was 98 and the Plant response rating ([19]; 125 g ai/ha) was 100. It also gave a Plant response rating ([19]; 250 g ai/ha) of 100, a Plant response rating ([20]; 31 g ai/ha) of 100 and a Plant response rating ([20]; 62 g ai/ha) of 98. The Plant response rating ([20]; 125 g ai/ha) was 100 and the Plant response rating ([20]; 250 g ai/ha) was 100.
